Experimental findings from ChEMBL document CHEMBL1201862, “PubChem BioAssay data set” (2004) are described below.

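These data come from cells grown in 96-well plates and exposed to compound for 48 hours at five concentrations. Here, GI50 denotes the concentration required for 50% inhibition of growth.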 Active and inactive are the calls of the source. Rule as the data show it: active = GI50 up to about 1.1 µM and inactive = higher.

Test systems include SK-MEL-2; SNB-75; M14; ACHN; HOP-62; OVCAR-4; CAKI-1; 786-0; A549; LOX IMVI; SF-295; UACC-257; EKVX; NCI-H226.
What all share (assay): DTP human tumour cell line panel, 48 h

By GI50 is commonly meant the concentration that inhibits growth by half.

Consider `Oc1ccc2ccccc2c1/N=N/c1ccc(F)cc1`, for which the GI50 in the experiment on SK-MEL-2, with SNB-75, with M14, in the experiment on ACHN, with HOP-62 and in the experiment on OVCAR-4 was > 100 µM (inactive) in each case. Also, the GI50 with CAKI-1, in the experiment on 786-0, in the experiment with A549, with LOX IMVI and in the experiment with SF-295 was > 100 µM (inactive) throughout.
On to `CC(=O)OC1CC2(c3ccccc3)C(=O)c3ccccc3N2O1` (centres undefined), for which the GI50 with UACC-257, in the experiment with SNB-75, in the experiment on M14, in the experiment on ACHN, in the experiment with HOP-62 and with OVCAR-4 was > 100 µM (inactive) throughout. In addition, the GI50 in the experiment with 786-0 was > 100 µM (inactive); with A549 it was > 100 µM (inactive); in the experiment on EKVX, 78.3 µM (inactive); with SF-295, > 100 µM (inactive); in the experiment on NCI-H226, > 100 µM (inactive).
As for `COC(=O)C12CCC(CC1=O)C2(C)C` (centres undefined), the GI50 was > 100 µM (inactive) in the experiment on UACC-257; 40.2 µM (inactive) in the experiment with SNB-75; > 100 µM (inactive) in the experiment with M14; > 100 µM (inactive) with ACHN; > 100 µM (inactive) with HOP-62; > 100 µM (inactive) in the experiment with OVCAR-4. For the same molecule, the GI50 in the experiment on 786-0, in the experiment on A549, in the experiment with LOX IMVI, in the experiment on EKVX, in the experiment with SF-295 and in the experiment with NCI-H226 was > 100 µM (inactive) in each case.
For the molecule `c1ccc(SC2(Sc3ccccc3)CCCC2)cc1`, the GI50 in the experiment with SK-MEL-2, with UACC-257, in the experiment on SNB-75, in the experiment on M14, in the experiment on ACHN and in the experiment on HOP-62 was > 100 µM (inactive) each time. Further, the GI50 with OVCAR-4, with CAKI-1, with 786-0, in the experiment with A549, with LOX IMVI and with EKVX was > 100 µM (inactive) throughout. In addition, in the experiment on SF-295, the GI50 is > 100 µM (inactive).
Take `N#CC(C#N)c1ccc(C(=O)N2CCC[C@H]2CO)cc1`: the GI50 with SK-MEL-2, in the experiment on UACC-257, in the experiment on SNB-75, with M14, with ACHN and in the experiment with HOP-62 was > 100 µM (inactive) in each case. The GI50 with OVCAR-4, in the experiment on CAKI-1, in the experiment with 786-0, with A549, with LOX IMVI and in the experiment with EKVX was > 100 µM (inactive) in each case. Besides, the GI50 in the experiment with SF-295 is > 100 µM (inactive).
With `C#CCC(O)c1ccccc1C(O)CC#C` (centres undefined), the GI50 with SK-MEL-2 was 62.1 µM (inactive); with UACC-257, > 100 µM (inactive); in the experiment on SNB-75 it was 28.2 µM (inactive); in the experiment on M14 it was > 100 µM (inactive); in the experiment on ACHN, 75.5 µM (inactive); in the experiment on HOP-62, > 100 µM (inactive). The GI50 with OVCAR-4 is > 100 µM (inactive); in the experiment with CAKI-1, 65.2 µM (inactive); in the experiment on 786-0, > 100 µM (inactive); with A549, > 100 µM (inactive); with LOX IMVI, > 100 µM (inactive); in the experiment with EKVX, > 100 µM (inactive). The GI50 in the experiment on SF-295 was > 100 µM (inactive).
With `N#Cc1cc([N+](=O)[O-])ccc1NC(=O)C(=O)C(C(=O)/C=C/c1ccccc1)C1OC(=O)c2ccccc21` (centres undefined), the GI50 with UACC-257, in the experiment on SNB-75, in the experiment with M14, in the experiment with ACHN, with HOP-62 and with OVCAR-4 was > 100 µM (inactive) each time. For the same molecule, the GI50 in the experiment on CAKI-1, in the experiment with 786-0, in the experiment on A549, in the experiment with LOX IMVI, in the experiment on EKVX and in the experiment with SF-295 was > 100 µM (inactive) throughout. In addition, the GI50 with NCI-H226 was > 100 µM (inactive).
With `Cc1cc(C)nc(NS(=O)(=O)c2ccc(Nc3c4ccccc4nc4c(C(=O)Nc5ccc(S(=O)(=O)N=C(N)N)cc5)cccc34)cc2)n1`, the GI50 in the experiment on SK-MEL-2 is > 100 µM (inactive); with UACC-257 it was > 100 µM (inactive); with SNB-75, 27.2 µM (inactive); with M14, 90.4 µM (inactive); with ACHN, > 100 µM (inactive); with HOP-62 it was > 100 µM (inactive). The GI50 in the experiment with OVCAR-4, in the experiment on CAKI-1, in the experiment on 786-0, in the experiment on A549, in the experiment with LOX IMVI and in the experiment with EKVX was > 100 µM (inactive) in each case.
`COCCN1C2=CCCCC2=Nc2c1nc(N)[nH]c2=O`: the GI50 in the experiment with UACC-257, with SNB-75, with M14, with ACHN, with HOP-62 and in the experiment with CAKI-1 was > 100 µM (inactive) each time. For the same molecule, the GI50 with 786-0, with A549, in the experiment on LOX IMVI, in the experiment on EKVX, in the experiment on SF-295 and in the experiment on NCI-H226 was > 100 µM (inactive) throughout.
For `CCCC1N2CCCCC2[C@@H]2c3[nH]c4ccccc4c3CCN12` (some centres undefined), the GI50 was > 100 µM (inactive) with SK-MEL-2; > 100 µM (inactive) in the experiment on UACC-257; 32.3 µM (inactive) with SNB-75; > 100 µM (inactive) with M14; > 100 µM (inactive) with ACHN; > 100 µM (inactive) in the experiment with HOP-62. Moreover, the GI50 with OVCAR-4, in the experiment on CAKI-1, with 786-0, in the experiment with A549, with EKVX and in the experiment on SF-295 was > 100 µM (inactive) in each case.
With `CCC(C)(C)C(=O)O[C@H]1C[C@@H](C)C=C2C=C[C@H](C)[C@H](CC[C@@H]3C[C@@H](O)CC(=O)O3)[C@H]21` [SIMVASTATIN], the GI50 in the experiment with SK-MEL-2 is 0.522 µM (active); with UACC-257 it was 17.3 µM (inactive); with SNB-75, 0.658 µM (active); with M14, 2.25 µM (inactive); in the experiment with ACHN, 0.447 µM (active); in the experiment with HOP-62 it was 9.2 µM (inactive). In addition, the GI50 in the experiment with OVCAR-4 is > 30 µM (inactive); in the experiment with CAKI-1 it was 4.03 µM (inactive); in the experiment on 786-0 it was 9.33 µM (inactive); in the experiment on A549 it was 5.79 µM (inactive); in the experiment on EKVX, 0.948 µM (active); in the experiment with SF-295, 1.13 µM (inactive).
